Holding throughout (assay): CYP P450 inhibition in HLMs (Eurofins Panlabs)
Holding throughout (format): in vitro ADME

The target in series [1] is T1, CYP2B6 (Homo sapiens, UniProt P20813).
T1 construct: from tissue; host or cells: human liver microsomes (HLMs)
T1 sequence (P20813 1-491): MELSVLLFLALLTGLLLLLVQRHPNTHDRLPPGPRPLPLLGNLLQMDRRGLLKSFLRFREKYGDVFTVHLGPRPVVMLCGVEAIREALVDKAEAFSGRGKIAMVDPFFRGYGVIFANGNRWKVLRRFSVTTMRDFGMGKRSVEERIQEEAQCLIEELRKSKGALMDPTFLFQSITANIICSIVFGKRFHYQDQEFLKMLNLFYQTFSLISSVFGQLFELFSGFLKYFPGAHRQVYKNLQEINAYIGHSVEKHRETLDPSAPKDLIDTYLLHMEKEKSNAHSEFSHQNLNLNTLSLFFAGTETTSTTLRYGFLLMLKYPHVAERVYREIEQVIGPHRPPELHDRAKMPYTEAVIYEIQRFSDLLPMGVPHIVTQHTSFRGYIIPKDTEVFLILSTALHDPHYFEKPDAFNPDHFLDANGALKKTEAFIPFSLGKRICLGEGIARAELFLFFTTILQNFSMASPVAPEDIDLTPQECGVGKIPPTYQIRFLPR
The note with it: S-CE-123 10 µM. As to the method: (§1) In vitro metabolism assays for the cytochrome (CYP) P450 inhibition of S-CE-123 was outsourced to Eurofins Panlabs (St. Charles, MO, USA, study number 100050638). Briefly, 0.1 mg/mL of the HLMs was incubated for 10 min at 37 °C with substrate (10 µM phenacetin for CYP1A, 100 µM bupropion for CYP2B6, 10 µM amodiaquine for CYP2C8, 10 µM diclofenac for CYP2C9, 0.5 µM omeprazole for CYP2C19, 5 µM dextromethorphan for CYP2D6, 5 µM midazolam for CYP3A, and 50 µM testosterone for CYP3A4) in the presence/absence of S-CE-123 (10 µM). The peak areas corresponding to the metabolite of each substrate were recorded. The percent of control activity was then calculated by comparing the peak area obtained in the presence of the test compound to that obtained in the absence of the test compound. Subsequently, the percent inhibition was calculated by subtracting the percent control activity from 100 for each compound. The IC50 values (concentration causing a half-maximal inhibition of control values) were determined using non-linear regression analysis of the concentration–response curve using Hill equation curve fitting.

The target of series [2] is T2, CYP2D6 (Homo sapiens, UniProt P10635).
T2 construct: from tissue; host or cells: human liver microsomes (HLMs)
Conditions: microsomes, S-CE-123 10 µM, range given for CYP2C9, CYP1A and CYP2D6 together, read-out: inhibition of control values. As to the method:
as §1

The target of series [3] is T3, CYP1A (Homo sapiens, UniProt P05177).
T3 construct: from tissue; host or cells: human liver microsomes (HLMs)
T3 sequence (P05177 2-516 limits assumed): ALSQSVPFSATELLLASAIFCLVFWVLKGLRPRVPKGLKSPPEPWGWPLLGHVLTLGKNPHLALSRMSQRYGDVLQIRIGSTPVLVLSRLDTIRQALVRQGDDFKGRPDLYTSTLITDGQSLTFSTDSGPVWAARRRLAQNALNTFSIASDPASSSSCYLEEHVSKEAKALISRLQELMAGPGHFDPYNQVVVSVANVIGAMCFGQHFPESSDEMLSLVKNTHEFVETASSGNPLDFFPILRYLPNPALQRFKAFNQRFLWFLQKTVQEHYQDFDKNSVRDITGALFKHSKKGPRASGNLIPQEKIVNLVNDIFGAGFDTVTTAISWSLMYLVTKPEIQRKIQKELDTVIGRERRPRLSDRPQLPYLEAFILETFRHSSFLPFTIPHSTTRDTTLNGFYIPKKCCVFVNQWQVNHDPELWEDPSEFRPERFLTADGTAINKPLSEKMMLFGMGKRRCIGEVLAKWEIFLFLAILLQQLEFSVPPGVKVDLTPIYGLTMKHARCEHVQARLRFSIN
Conditions: microsomes, S-CE-123 10 µM, range given for CYP2C9, CYP1A and CYP2D6 together, read-out: inhibition of control values. On the procedure: as §1

T2 sequence (P10635 whole entry): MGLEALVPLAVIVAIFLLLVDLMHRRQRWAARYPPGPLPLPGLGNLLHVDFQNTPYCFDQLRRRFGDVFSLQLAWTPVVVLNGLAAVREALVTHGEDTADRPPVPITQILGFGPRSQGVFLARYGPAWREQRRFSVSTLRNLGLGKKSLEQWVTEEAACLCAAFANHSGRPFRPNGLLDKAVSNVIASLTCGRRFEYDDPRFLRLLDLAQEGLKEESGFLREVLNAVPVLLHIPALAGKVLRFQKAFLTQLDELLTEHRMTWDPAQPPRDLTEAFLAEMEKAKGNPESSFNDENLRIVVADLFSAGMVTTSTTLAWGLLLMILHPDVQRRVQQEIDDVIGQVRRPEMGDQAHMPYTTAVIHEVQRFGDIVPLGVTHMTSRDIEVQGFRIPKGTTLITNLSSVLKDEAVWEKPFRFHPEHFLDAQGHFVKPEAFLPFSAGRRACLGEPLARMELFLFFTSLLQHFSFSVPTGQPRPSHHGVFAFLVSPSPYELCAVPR

For the compound `[O-][S@@+](Cc1cncs1)C(c1ccccc1)c1ccccc1` [S-CE-123], the “inhibition of control values” in series [1] is on record as “Low inhibition”. Further, the inhibition at 10 min, 10 µM in series [2] and in series [3] was 47 to 68% each time.
